Our source for the IC50 and inhibition values is paper PMC4687057, “The function of phosphatidylinositol 5-phosphate 4-kinase γ (PI5P4Kγ) explored using a specific inhibitor that targets the PI5P-binding site” (Biochemical Journal, 2015).

Test [1] addresses T1, phosphatidylinositol 5-phosphate 4-kinase γ (PI5P4Kγ) (Homo sapiens, UniProt Q8TBX8).
T1 construct: gene PIP4K2C; PI5P4Kγ from GST fusion (pGEX6P), GST cleaved with PreScission protease
The test is described as follows: HDX-MS with purified protein; IC50 from […]P lipid kinase assay on recombinant enzyme. The format is biochemical.

The target of test [2] is T2, PI5P4Kγ+ (E378H,I159V,D161V) mutant (Homo sapiens, UniProt Q8TBX8, D161V/E153T/I159V/Q378H).
T2 construct: gene PIP4K2C
T2 sequence (Q8TBX8 2-421 E153T/I159V/D161V/Q378H): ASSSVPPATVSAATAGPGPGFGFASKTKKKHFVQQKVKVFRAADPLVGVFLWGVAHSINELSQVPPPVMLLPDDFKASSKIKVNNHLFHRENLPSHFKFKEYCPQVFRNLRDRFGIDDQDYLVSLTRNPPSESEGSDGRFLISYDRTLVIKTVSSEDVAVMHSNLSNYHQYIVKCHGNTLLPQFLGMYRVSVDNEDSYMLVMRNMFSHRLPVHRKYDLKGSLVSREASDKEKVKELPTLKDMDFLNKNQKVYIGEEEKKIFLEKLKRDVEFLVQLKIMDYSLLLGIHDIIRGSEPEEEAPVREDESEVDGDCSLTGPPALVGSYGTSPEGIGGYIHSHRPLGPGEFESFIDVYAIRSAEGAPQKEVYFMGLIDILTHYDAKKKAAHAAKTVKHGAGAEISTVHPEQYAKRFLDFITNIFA
The test is described as follows: […] lipid kinase assay, % inhibition at […]. Type of test: biochemical.

T1 sequence (Q8TBX8 2-421): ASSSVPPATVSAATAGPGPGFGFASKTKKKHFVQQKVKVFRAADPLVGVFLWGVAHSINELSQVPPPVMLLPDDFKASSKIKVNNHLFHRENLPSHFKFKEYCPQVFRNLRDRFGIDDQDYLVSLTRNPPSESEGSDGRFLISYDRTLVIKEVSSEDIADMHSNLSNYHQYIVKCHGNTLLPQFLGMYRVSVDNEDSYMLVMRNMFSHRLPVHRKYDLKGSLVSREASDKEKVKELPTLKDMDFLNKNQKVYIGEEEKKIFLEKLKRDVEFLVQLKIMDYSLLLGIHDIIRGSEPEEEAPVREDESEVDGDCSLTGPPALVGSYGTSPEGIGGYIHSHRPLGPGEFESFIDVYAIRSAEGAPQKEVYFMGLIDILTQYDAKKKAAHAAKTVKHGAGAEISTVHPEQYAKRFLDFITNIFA

What is called IC50 is the concentration needed to halve the response being measured. Usually inhibition stands for the percentage by which the read-out fell short of the control. Regarding `FC(F)(F)c1ccccc1-c1nc(NCc2cccs2)c2ccccc2n1` [compound 1, NIH-12848], the IC50 in test [1] worked out at 3.3 µM. Further, testing at 10 µM in test [2] gave an inhibition of 71%.
